Structures can show the parent of a compound that is named as a salt.

Experiment [1] deals with Normal human epidermal keratinocytes (NHEK(F)). Put plainly: Ceramide production promotion test (Test Example 3). It is filed as cell-based. Particulars: 5 mM solution added in an amount of 1%, 3 days culture. The procedure: Normal human epidermal keratinocytes (NHEK(F)) were seeded into an EpiLife-KG2 (KURABO INDUSTRIES LTD.) 6-well Plate and cultured until the cells became confluent. […] Culture was performed for 3 days, and the cells in each well were separately collected. Lipids were extracted from the collected cells by a Bligh and Dyer method. The extracts were dried with nitrogen, and the residues were redissolved in chloroform and methanol, to thereby prepare lipid samples. Note that the amounts of proteins were determined by the BCA method. The extracted lipids were subjected to horizontal development twice by using thin layer chromatography (TLC) and chloroform:methanol:acetic acid=190:9:1. The resultant were sprayed with a copper sulfate solution and heated on a hot plate, to thereby detect ceramide. Thereafter, the resultant values were divided by respective protein amounts to calculate amounts of ceramide.

The test system is the same in experiment [2]. Put plainly: Ceramide production promotion test (Test Example 1). The experiment is classed as cell-based. Particulars: 3 days culture, control (10% ethanol) defined as 1. The procedure: Normal human epidermal keratinocytes (NHEK(F)) were seeded into an EpiLife-KG2 (KURABO INDUSTRIES LTD.) 6-well Plate and cultured until the cells became confluent. Thereafter, in replacement of EpiLife-KG2 (containing no proliferation addition factor), Compound 1 (5 mM) and Compound 2 (1 mM) prepared in Production Examples or a control solution (10% ethanol) was added thereto in an amount of 1%. Culture was performed for 3 days, and the cells in each well were separately collected.
Lipids were extracted from the collected cells by Bligh and Dyer method. The extracts were dried with nitrogen, and the residues were redissolved in chloroform and methanol, to thereby prepare lipid samples. Note that the amounts of proteins were determined by a BCA method.
The extracted lipids were subjected to horizontal development twice by using thin layer chromatography (TLC) and chloroform:methanol:acetic acid=190:9:1. The resultant was sprayed with a copper sulfate solution and heated on a hot plate, to thereby detect ceramide. Thereafter, the resultant values were divided by respective protein amounts to calculate amounts of ceramide. […] The numerical values shown in the table are relative values when the amount of ceramide in the control is defined as 1.

The subject of experiment [3] is human horny layer. In words: Test on effect of improving moisture content in human horny layer (Test Example 2). The experiment is classed as in vivo. Particulars: 1% Compound 1 solution applied to cheek twice a day, five days a week, 4 weeks; ten men; P<0.1 t-test. The procedure: Ten men (25 to 40-year-old: mean age 30.5)
A solution containing 1% Compound 1 and a placebo solution containing only a solvent were used as application samples. The solvent used was 95.0% ethanol:1,3-BG:purified water=20:10:70.
The samples were applied twice a day and five days a week. The amount of each sample per application was set to two drops (about 100 μl) from an eye drop bottle.
The test was performed by applying the sample containing 1% Compound 1 to one side of the cheek and the placebo solution to the other side for 4 weeks, followed by measuring moisture contents in the horny layer using a Corneometer. The measurement was performed before the application and after the 4-week application at the same regions on the cheek, and the result of the 1% Compound 1-containing sample side was compared with that of the placebo side.

Setting [4] is: control (10% ethanol) defined as 1.
The mark [5] stands for this setting: control (50% ethanol) defined as 1.

Consider `CCCCCCCCCC(CCCCCCC)COCC(O)COP(=O)(O)O` (centres unmarked) [Compound 6, 1-(2-Heptylundecyl)glycerol-3-phosphate monoarginine salt], for which the “Amount of ceramide (relative value)” value in experiment [1] (setting [4]) was found to be 4.0. With `CCCCCCCCCCCCCCCCCCOCC(O)COP(=O)([O-])[O-].[Na+].[Na+]` (centres unmarked) [Compound 5, 1-Octadecylglycerol-3-phosphate disodium salt], the “Amount of ceramide (relative value)” value in experiment [1] (setting [5]) turned out to be 2.6.

Consider “monoalkyl (having an average alkyl chain length of C13) phosphate potassium salt [Comparative Compound 1, reference compound]”, for which, in experiment [1] (setting [5]), the “Amount of ceramide (relative value)” value came to 0.6. Turning to `CCCCCCCCCCCCCCOCC(O)COP(=O)(O)O` (centres unmarked) [Compound 4, 1-Tetradecylglycerol-3-phosphate monoarginine salt], the “Amount of ceramide (relative value)” value in experiment [1] (setting [4]) turned out to be 4.3.

On to `CCCCCCCCCCC(CCCCCCCC)COCC(O)COP(=O)(O)O` (centres unmarked) [Compound 9, 1-(2-Octyldodecyl)glycerol-3-phosphate monoarginine salt], for which the “Amount of ceramide (relative value)” value in experiment [1] (setting [4]) is on record as 4.1. On the same count and under the same terms, under `CCCCCCCCCCCCOCC(O)COP(=O)([O-])[O-].[Na+].[Na+]` (centres unmarked) [Compound 3, 1-Dodecylglycerol-3-phosphate disodium salt] stands 3.1. For `CCCCOCC(COCCCCCCCCCCCCCCCC(C)C)OP(=O)([O-])[O-].[Na+].[Na+]` (centres unmarked) [Compound 2, 1-isostearyl-3-butylglycerol-2-phosphate sodium salt], in experiment [2] (1 mM solution added in an amount of 1%), the “Amount of ceramide (relative value)” value turned out to be 1.5. Regarding `CCCCCC(C)CCCCCCCCCCCOCC(O)COP(=O)([O-])[O-].[K+].[K+]` (centres unmarked) [Compound 8, 1-(12-Methylheptadecyl)glycerol-3-phosphate dipotassium salt], the “Amount of ceramide (relative value)” value in experiment [1] (setting [4]) was determined as 10.4. For the compound “1-n-tetradecyl-3-ethylglycerol-2-phosphate arginine salt [Compound 1]”, the “Amount of ceramide (relative value)” value in experiment [2] (5 mM solution added in an amount of 1%) came out at 3.3. For the same compound, in experiment [3], the “Moisture content in the horny layer (Corneometer) compared with placebo-applied side” value is “increase”. As to “1-Isostearylglycerol-3-phosphate monoarginine salt [Compound 7]”, in experiment [1] (setting [4]), the “Amount of ceramide (relative value)” value is on record as 18.9.

The values are drawn from patent US8440645B2, “Ceramide production promoter” (Kao Corporation, priority 2008, dated 2013).
